Test results from US6545032B1, “Synthesis of [3,5,7]-H-imidazo[1,5-a] imidazol-2(3H)-one compounds” (Torrey Pines Institute for Molecular Studies, priority 1999, dated 2003).

Columns and labels:
mu opiate receptor = target: T1, mu opiate receptor (Rattus norvegicus, UniProt P33535); test: Inhibition of [3H]DAMGO binding to the mu opiate receptor in rat brain homogenates; design: Mean: unit not given beside the values; details: 0.08 mg of compound per milliliter, 7 nM 3H-labeled DAMGO, rat brain membranes; for % Bound: [3H]DAMGO bound; for Mean: mean bound radioactivity of [3H]DAMGO; for Minus NSB*: mean minus non-specific binding; for % Inhibition: percent inhibition of DAMGO binding
T1 construct: from tissue; host or cells: rat brain membranes/homogenate
T1 sequence (P33535 whole entry): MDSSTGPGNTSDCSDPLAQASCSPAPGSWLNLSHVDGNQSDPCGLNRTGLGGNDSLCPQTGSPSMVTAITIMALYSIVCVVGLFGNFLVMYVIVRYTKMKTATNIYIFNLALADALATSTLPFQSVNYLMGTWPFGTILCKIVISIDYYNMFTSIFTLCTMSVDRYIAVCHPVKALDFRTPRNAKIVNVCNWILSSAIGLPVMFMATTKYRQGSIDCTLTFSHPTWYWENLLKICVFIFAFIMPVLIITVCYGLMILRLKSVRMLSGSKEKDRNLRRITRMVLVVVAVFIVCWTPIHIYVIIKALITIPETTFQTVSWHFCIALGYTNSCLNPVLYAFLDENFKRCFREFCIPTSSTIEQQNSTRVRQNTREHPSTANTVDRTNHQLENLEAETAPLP
Method: The previously prepared [3,5,7]-1H-imidazo[1,5-a]-imidazol-2(3H)-one library of individual compounds was screened for the ability to inhibit the binding of [^3H] [D-Ala^2,MePhe^4,Gly^5-ol]enkephalin (DAMGO) that is known to bind specifically to the mu opiate receptor present in rat brain homogenates following literature procedures. [Dooley et al., Science, 266:2019(1994); U.S. Pat. No. 5,763,193.]
Preparation of rat brain membranes and the receptor binding assay were carried out as described in Dooley et al., Life Sci., 52:1509(1993). Each tube in the screening assay contained 0.08 mg of compound mixture per milliliter, 0.5 mL of membrane suspension (0.1 mg of protein), 7 nM ^3H-labeled DAMGO [specific activity 36 Ci/mmol, obtained from the National Institute on Drug Abuse (NIDA) repository through Chiron Mimotopes PeptideSystems (San Diego, Calif.) and […] of peptide mixture in 50 mM Tris-HCl buffer (pH 7.4). The final volume was 0.65 mL. The results of these screenings are shown in the table, below, wherein the “R” groups are as discussed for Example 1. The results are reported as percent inhibition of DAMGO binding.

kappa opiate receptor = target: T2, kappa opiate receptor (Cavia porcellus, UniProt P41144); test: Inhibition of tritiated U69,593 binding to the kappa opiate receptor in guinea pig brain homogenates; design: Mean: unit not given beside the values; details: 3 nm tritiated U69,593, guinea pig brain membranes; for % Bound: [3H]U69,593 bound; for % Inhibition: inhibition of [3H]U69,593 binding; for Mean: mean bound radioactivity of [3H]U69,593, 2.5 hours 25° C.; for Minus NSB: mean minus non-specific binding
T2 construct: guinea pig cortices and cerebella were homogenized in 40 mL of Buffer A; from tissue; host or cells: guinea pig cortices and cerebella, crude membrane suspension
T2 sequence (P41144 whole entry): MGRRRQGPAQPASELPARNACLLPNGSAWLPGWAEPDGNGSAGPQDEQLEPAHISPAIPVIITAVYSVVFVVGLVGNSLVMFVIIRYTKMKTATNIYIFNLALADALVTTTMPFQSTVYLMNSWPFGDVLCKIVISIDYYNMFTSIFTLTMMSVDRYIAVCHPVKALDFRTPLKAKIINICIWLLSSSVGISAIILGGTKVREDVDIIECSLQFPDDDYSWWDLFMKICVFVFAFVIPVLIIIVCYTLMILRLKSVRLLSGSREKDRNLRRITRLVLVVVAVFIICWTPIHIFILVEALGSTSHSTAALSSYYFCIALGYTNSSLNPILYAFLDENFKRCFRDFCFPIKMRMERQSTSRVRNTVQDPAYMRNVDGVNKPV
Method: The above-prepared library of individual compounds was screened for the ability to inhibit the binding of tritiated Compound U69,593 that is known to bind specifically to the kappa opiate receptor present in guinea pig brain homogenates following literature procedures. [Dooley et al., J. Biol. Chem., 273(30) 18848-18856 (1998)]
Briefly, guinea pig cortices and cerebella were homogenized in 40 mL of Buffer A [50 mM Tris-HCl, pH 7.4] at 4° C. Homogenates were centrifuged [Beckman® J2-HC, 35, 300×g] for 10 minutes. The pellets were resuspended in fresh buffer and incubated at 37° C. for 40 minutes. Following incubation, the suspensions were centrifuged as before, the resulting pellets resuspended in 100 volumes of Tris buffer, and the suspensions combined. Membrane suspensions were prepared and used on the same day. Protein content of the crude homogenates was determined by the method of Bradford, Anal. Biochem., 72:248-252 (1976).
Each assay tube contained 0.5 mL of membrane suspension, 3 nm of tritiated Compound U69,593 [(5a,7a,8b)-(−)-N-methyl-N-(7-(1-pyrrolidinyl)-1-oxaspiro(4,5)dec-8-yl)-benzeneacetamide; Lahti et al., European J. Pharmacol., 109:281-284(199-85)] in a total volume of 0.65 mL. Assay tubes were incubated for 2.5 hours a 25° C. The assay was then filtered through GF-B filters on a Tomec™ harvester (Orange, Conn.). The filters were subsequently washed with 6 mL of 50 mM Tris-HC1, pH 7.4 at 4° C. Bound radioactivity was counted on a Wallace™ Beta-plate Liquid Scintillation Counter (Piscataway, N.J.). Unlabeled U50, 488 [(trans-(dl)-3,4-dichloro-N-methyl-N-[2-(1-pyrrolidinyl)cyclohexyl]-benzeneacetamide) methane sulfonate hydrate; Lahti et al., Life Sci., 31:2257-xx(1982) and Von Voightlander et al., J. Pharmacol. Exp. Ther., 224:7 (1983)] was used as a competitive inhibitor to generate a standard curve and determine nonspecific binding. The results of these assays are shown in the table, below, wherein the “R” groups are as discussed for Example 1.

Row | Compound | % Bound (mu opiate receptor) | Mean (mu opiate receptor) | Minus NSB* (mu opiate receptor) | % Inhibition (mu opiate receptor) | % Bound (kappa opiate receptor) | % Inhibition (kappa opiate receptor) | Mean (kappa opiate receptor) | Minus NSB (kappa opiate receptor)
1 | CC(C)c1nc(Cc2ccc(-c3ccccc3)cc2)n2c1NC(=O)C2C(C)C (racemic) [Pool 84] | 57% | 850.4 | 542.40 | 43% | 69.624% | 30.376% | 1628.3 | 721.30
2 | Cc1nc(CO)c2n1C(C(C)C)C(=O)N2 (stereo not drawn) [Pool 39] |  |  |  |  | 78.827% | 21.173% | 1723.65 | 816.65
3 | CCCCC1C(=O)Nc2c(C(C)C)nc(C)n21 (stereo not drawn) [Pool 27] | 59% | 871.25 | 563.25 | 41% | 79.855% | 20.145% | 1734.3 | 827.30
4 | Cc1nc(C(C)C)c2n1C(C)C(=O)N2 (stereo not drawn) [Pool 18] | 71% | 989.15 | 681.15 | 29% | 88.016% | 11.984% | 1818.85 | 911.85
5 | COc1cccc(Cc2nc(C(C)C)c3n2C(C(C)C)C(=O)N3)c1 (racemic) [Pool 76] | 57% | 854 | 546.00 | 43% | 91.902% | 8.098% | 1859.1 | 952.10
6 | CC(C)c1nc(CC2CCCCC2)n2c1NC(=O)C2C(C)C (stereo not drawn) [Pool 138] | 60% | 877.8 | 569.80 | 40% | 70.685% | 29.315% | 1639.3 | 732.30
7 | CCCC1C(=O)Nc2c(C(C)C)nc(C)n21 (stereo not drawn) [Pool 12] | 72% | 998.7 | 690.70 | 28% | 74.706% | 25.294% | 1680.95 | 773.95
8 | CC(C)c1nc(Cc2cccc(F)c2)n2c1NC(=O)C2C(C)C (racemic) [Pool 71] | 57% | 853.7 | 545.70 | 43% | 61.245% | 38.755% | 1541.5 | 634.50
9 | Cc1nc(C(C)C)c2n1C(C(C)C)C(=O)N2 (stereo not drawn) [Pool 3] | 70% | 974.05 | 666.05 | 30% | 54.228% | 45.772% | 1468.8 | 561.80
10 | CCCc1nc(C(C)C)c2n1C(C(C)C)C(=O)N2 (racemic) [Pool 121] | 54% | 826.45 | 518.45 | 46% | 60.468% | 39.532% | 1533.45 | 626.45
11 | CC(C)c1nc(Cc2cc(C(F)(F)F)cc(C(F)(F)F)c2)n2c1NC(=O)C2C(C)C (racemic) [Pool 82] | 63% | 911.65 | 603.65 | 37% | 70.589% | 29.411% | 1638.3 | 731.30
12 | CCOc1ccc(Cc2nc(C(C)C)c3n2C(C(C)C)C(=O)N3)cc1 (racemic) [Pool 79] | 65% | 929.1 | 621.10 | 35% | 90.338% | 9.662% | 1842.9 | 935.90
13 | Cc1nc(C(C)C)c2n1C(CC(C)C)C(=O)N2 (stereo not drawn) [Pool 4] | 70% | 980.1 | 672.10 | 30% | 95.420% | 4.580% | 1895.55 | 988.55
14 | Cc1nc(C(C)C)c2n1C(CC(C)C)C(=O)N2 (stereo not drawn) [Pool 20] | 50% | 787.6 | 479.60 | 50% | 68.996% | 31.004% | 1621.8 | 714.80
15 | Cc1nc(C)n2c1NC(=O)C2C(C)C (stereo not drawn) [Pool 35] | 47% | 753.5 | 445.50 | 53% | 77.693% | 22.307% | 1711.9 | 804.90
16 | Cc1nc(CCCNC(=N)N)c2n1C(C(C)C)C(=O)N2 (stereo not drawn) [Pool 42] | 29% | 581.65 | 273.65 | 71% | 48.200% | 51.800% | 1406.35 | 499.35
17 | CCCC1C(=O)Nc2c(C(C)C)nc(C)n21 (stereo not drawn) [Pool 28] | 66% | 932.9 | 624.90 | 34% | 67.601% | 32.399% | 1607.35 | 700.35
